Literature values, collected in patent publication US12193458B2, “Sweetening composition and preparation method and use thereof” (HUNAN NUTRAMAX INC., priority 2019, dated 2025).

Tests used:
[1] = component of Rubus suavissimus S. Lee
[2] = pH value of 3 to 12, heated, under light irradiation

| Compound | taste [1] | decomposition when heated in a water solution [2] |
| --- | --- | --- |
| Suavioside H | sweet taste | – |
| Suavioside I | sweet taste | – |
| C=C1C[C@@]23CC[C@H]4[C@@](C)(CCC[C@@]4(C)C(=O)O)[C@@H]2CC[C@]1(O[C@@H]1O[C@H](CO)[C@@H](O)[C@H](O)[C@H]1O)C3 [Steviolmonoside] | sweet taste | – |
| Suavioside E | tasteless | – |
| CC1(C)C(O)CCC2(C)C3CCC4CC3(CCC12)CC4(O)COC1OC(CO)C(O)C(O)C1O (stereo not shown) [Suavioside A] | sweet taste | – |
| Suavioside D1 | tasteless | – |
| Suavioside C1 | bitter taste | – |
| Suavioside D2 | bitter taste | – |
| Suavioside F | bitter taste | – |
| CC1(C)C(=O)CCC2(C)C3CCC4CC3(CCC12)CC4(O)COC1OC(CO)C(O)C(O)C1O (stereo not shown) [Sugereoside] | bitter taste | – |
| Suavioside G | sweet taste | – |
| Suavioside B | sweet taste | – |
| C=C1C[C@@]23CC[C@H]4[C@@](C)(CCC[C@@]4(C)C(=O)O[C@@H]4O[C@H](CO)[C@@H](O)[C@H](O)[C@H]4O)[C@@H]2CC[C@]1(O[C@@H]1O[C@H](CO)[C@@H](O)[C@H](O)[C@H]1O)C3 [Rubusoside] | – | will not decompose significantly |
| C[C@@H]1CC[C@]2(C(=O)O[C@@H]3O[C@H](CO)[C@@H](O)[C@H](O)[C@H]3O)CC[C@]3(C)C(=CC[C@@H]4[C@@]5(C)C[C@@H](O)[C@H](O)[C@@](C)(CO)[C@@H]5CC[C@]43C)[C@@H]2[C@]1(C)O [Nigaichigoside F1] | bitter taste | – |
| Suavioside J | sweet taste | – |
| C[C@@]12CCC[C@@](C)(C(=O)O[C@@H]3O[C@H](CO)[C@@H](O)[C@H](O)[C@H]3O)[C@H]1CC[C@@]13C[C@@H](CC[C@H]12)[C@@](O)(CO)C3 [Paniculoside IV] | tasteless | – |
